Series [1] in a line: Pen-level performance (ADG, DMI, G:F) of bulls castrated on arrival and steers (Example 4). The format is in vivo, cross-bred beef calves. The settings on record: for ADG: pen-level mean estimate. On the procedure: This study was designed as a stratified 2-arm parallel trial. […] Calves were maintained on open pens that consisted of a combination of concrete aprons and dirt pens. […] Upon arrival, calves were unloaded and sorted (d 0).
Processing and surgical castration was performed by the same operator to minimize variation in procedure. […] Briefly, the scrotum of each calf was cleaned with dilute chlorohexidine disinfectant and incised longitudinally with a Newberry knife (Jorgensen Lab, Loveland, Colo.). The testes and spermatic cords were exteriorized by blunt dissection and the cremaster was broken using manual traction. The spermatic cords were cut using a White's Double Crush emasculator (Jorgensen Lab, Loveland, Colo.) applied for approximately 30 seconds. Steers were subjected to the same handling procedures apart from knife cutting and castration.
After processing, calves were sorted into study pens. Calves from each load were ranked by BW and systematically allocated to pens based upon weight, gonadal status, and treatment group. For each of the 3 loads, 2 pens were assigned to each of the 4 treatment groups for a total of 24 pens. After allocation each pen contained 8 to 14 calves of the same treatment subclass: 6 pens of 10 to 14 calves in the CONT-CAST group, 6 pens of 10 to 14 calves in the MEL-CAST group, 6 pens of 8 to 10 calves in the […] group and 6 pens of 8 to 11 calves in the MEL-STR group. All pens were 12 m×16 m with 12 m of bunk space and one water source per pen. Calves were reweighed on day 14. Additionally, calves were revaccinated with the viral respiratory vaccine (Pyramid 5+ Presponse SQ, Fort Dodge Animal Health, Wyeth, Madison, N.J.) and given a pour-on eprinomectin at 500 μg/kg BW (Eprinex, Merial Limited, Duluth, Ga.) at this time. Final BW was obtained at the end of the study on day 28.
All animals were individually weighed on arrival (day 0), prior to feeding at revaccination on day 14, and at the end of the study on day 28. Conditions were standardized for all animals at each time point. Feed consumption for each pen was determined on a daily basis by subtracting the weight of feed remaining at the next feeding from the total feed weight assigned to the pen. When animals were removed for health reasons, the amount of feed delivered to the pen and the corresponding animal gain in the pen were adjusted accordingly so that calculations for ADG, DMI and corresponding G:F were based on the number of calves remaining in the pen. Animal health data recorded for each calf identified as sick included the pull date, the individual animal identification number, body temperature, clinical score, a presumptive diagnosis, BW, and treatment.
The ancillary production variables (ADG, days on feed [DOF], and daily DMI) were calculated for all animals that completed the feeding period.
A general linear mixed model was fit to each performance response (DMI, ADG, G:F ratio) measured at the pen level. […] Random effects fit on the linear predictor included Lot as a blocking factor. Repeated observations within a pen were modeled using a compound symmetry residual variance-covariance structure. For DMI, the residual variance-covariance was expanded to accommodate heterogeneous variances at each time period. […] Newton-Raphson with ridging was the estimation algorithm implemented.

The test system of series [2] is calves with induced lameness. In words: Visual lameness score (Sprecher scale) in induced lameness. It counts as in vivo, British x Continental beef calves. To be noted: 5-point scale; p=0.03. On the procedure: After acclimatization, lameness was induced as previously described (Kotschwar et al, 2009). More specifically, chemical synovitis/arthritis was induced with an injection of 20 mg amphotericin B (X-Gen Pharmaceuticals, Inc, Big Flats, N.Y.) into the left hind distal interphalangeal joint of each calf (Period 2). All calves were first restrained in a chute with a head gate as conducted through the acclimatization period, and the hind leg was restrained with ropes at the fetlock and stifle. After restraint, the appropriate hindlimb lateral digit pastern region was prepared with close clipping of hair (No. 40 clipper blade) and aseptic skin preparation using povidone iodine scrub and 70% isopropyl alcohol swabs, followed by injection of the amphotericin B. Amphotericin B is a polyene antibiotic that produces a controlled, mild to moderately severe synovitis/arthritis of short duration. […]
Animal activity was assessed continuously with pedometers.
Lameness scores were determined twice daily to document presence of lameness and to visually score severity of lameness. […] Intra-observer variability was assessed periodically by randomly selecting calves for repeated assessment to ensure consistency of scoring. […] Each lameness score was determined by watching the calf walk a minimum of 20 meters in a straight line, turn, and walk 20 meters back to the starting point.

The conditions of series [3]: plasma; horses; cited from earlier work.
Series [4] can be described thus: Pharmacokinetics of oral meloxicam and gabapentin in the bovine lameness study (Example 6). The settings on record: meloxicam 0.5 mg/kg PO; Period 2, once daily for 4 days; mean ±SD.
Where [5] appears, read: bulls (castrated), 1 mg/kg per os 24 h prior, d1-14.
Where [6] appears, read: bulls (castrated), 1 mg/kg per os 24 h prior, d15-28.
Setting [7] is: steers, 1 mg/kg per os 24 h prior to processing, d1-14.
Where [8] appears, read: steers, 1 mg/kg per os 24 h prior to processing, d15-28.

A word on the Cmax: it is the maximum level reached in the sampled fluid or tissue.

Regarding `Cc1cnc(NC(=O)C2=C(O)c3ccccc3S(=O)(=O)N2C)s1` [meloxicam, 4-hydroxy-2-methyl-N-(5-methyl-2-thiazolyl)-2H-1,2-benzothiazine-3-carboxamide-1,1-dioxide], in series [1] (setting [5]), the DMI is 4.80 kg, the “G:F” value is 0.19 and the ADG is listed as 0.95 kg. Further, in series [1] (setting [6]), the DMI was 7.01 kg, the “G:F” value is 0.21 and the ADG was 1.50 kg. In series [1] (setting [7]), the DMI turned out to be 5.06 kg, the “G:F” value is reported as 0.30 and the ADG is given as 1.51 kg. Also, in series [1] (setting [8]), the DMI was 7.23 kg, the “G:F” value came to 0.20 and the ADG is 1.46 kg. Also, in series [1] (vs placebo, p=0.73), the “effect of meloxicam administration on DMI” value was “no evidence of an effect” and the “effect of meloxicam administration on G:F” value is “no evidence of an effect”. The “effect of meloxicam administration on ADG” value in series [1] (vs placebo, p=0.972) is “no evidence of an effect”. For the same molecule, the “visual lameness score vs PLBO” value in series [2] was “Significantly more PLBO calves had a visual lameness score of 3 and 4”. For the same molecule, the reported effective concentration in series [3] was 0.2 µg/mL. Further, in series [4], the Caverage was found to be 3810 ± 960 ng/mL and the Cmax was 4690 ± 1050 ng/mL.

The values are drawn from patent publication US8791105B2, “Methods for alleviating chronic pain and improving performance of cattle undergoing dehorning or castration” (Kansas State University Research Foundation, priority 2010, dated 2014).
